Laboratory results published in US20070292351A1, “Assay for efficacy of histone deacetylase inhibitors” (Methylgene, Inc., priority 2006, published 2007).

Columns and labels:
[1] = system: human colon cancer HCT15 cells; assay: RT-PCR of MT3 transcription in HCT15 cells; type: cell-based; details: 16 hours, real-time RT-PCR normalized against beta-actin (FIG. 1)
Description: FIG. 1. […] HCT15 cells were treated with HDAC inhibitors or indicated compounds for 16 hours before total RNAs are isolated. RNA levels of MT3 were measured by real-time RT-PCR and are subsequently normalized against β-actin.
Colon cancer HCT15 cells were exposed to 1 μM MGCD0103 for various amounts of time, and MT3 RNA levels were monitored by conventional semi-quantitative RT-PCR. Maximal induction is achieved between 8 h and 24 h of exposure and maintained through 72 h.
RNA was extracted from 8×10^6 cells using the Qiagen RNeasy Mini kit (cat#74106, Qiagen, Missisauga Ont.) following the manufacturer's instructions. RT reaction was performed using the Expand Reverse Transcriptase kit from Roche (Cat#1 785 834 Roche Applied Biosciences, Laval, Que) with 1 μg total RNA together with 1 μl oligo(dT) primer (cat#y01212, Invitrogen-Canada, Burlington, Ont). cDNA was synthesized using an Eppendorf Mastercycler gradient PCR apparatus (Brinkmann Instruments Canada LTD., Mississauga, Ontario), using a two cycle protocol. For the 1st cycle reaction mixture (0.5 μl H2O, 4 μl of 5× Buffer, 2 μl DTT, 2 ul of 10 mM dNTPs, 0.5 μl RNAsin (cat#N211B, Promega, Fisher Scientific, Whitby, Ont.) and […] of the Expand Reverse Transcriptase (Cat#1785834, Roche, Laval, Quebec)) was incubated at 65° C. for 10 minutes and then set on ice. A second cycle was performed at 42° C. for 1 hour. The resulting cDNA products were kept at 4° C. until used.
One ul of the resulting cDNA was used for every amplification reaction with 18.9 ul H2O, 1.25 ul of 10 mM dNTPs, 0.5 ul of each primer pair, 2.5 ul of 10× Buffer. The PCR reaction was carried out in an Eppendorf Mastercycler gradient. The sequences of the primers used for the amplification of selected biomarkers, as well as the details of the PCR reaction cycles are featured below. All buffers came from Expand Long Template PCR system (Roche, Laval, Quebec, Cat#11681842001). All primers were synthesized by Invitrogen (Invitrogen-Canada, Burlington, Ont.)
Analysis of transcripts was performed using STORM 860 (Amersham Biosciences, Baie d'Urfe, Qubec). Transcription of genes was normalized to transcription of actin, which was performed in the same RT-PCR reaction. The relative expression level of gense was normalized to baseline signals.
Quantitative PCR with SYBR Green I detection with Mastercycler® ep realplex (Eppendorf) was performed using LightCycler® 480 SYBR Green I Master (Roche Diagnostics). SYBR Green I assays were performed with 600 nM primers. All other reaction conditions were as described by the manufacturer. Amplification conditions were 5 minutes of initial denaturation at 95° C., followed by 40 cycles of each 15 seconds at 95° C., 15 seconds at 63.4° C., 20 seconds at 68° C., a melting curve from 60° C. to 95° C. was recorded. Quantification was performed using Pfaffl method, a relative quantification method in real-time PCR (Nucleic Acids Research 2001 29:2002-2007). Primers were synthesized by Invitrogen (Invitrogen-Canada, Burlington, Ont.).

[2] = system: peripheral blast cells from AML patients; details: ex vivo treatment (Nebbioso et al. 2004); cited from earlier work

SMILES	Induction of transcription of MT3 [1]	level of pro-apoptotic TRAIL expression [2]
O=C(CCCCCCC(=O)Nc1ccccc1)NO [SAHA]	induced	–
Nc1ccccc1NC(=O)c1ccc(CNC(=O)OCc2cccnc2)cc1 [MS-275]	induced	increase
